This note sets out measurements from patent US6448422B1, “Chromogenic compound” (Eli Lilly and Company, priority 2000, dated 2002).

For the assay, the target named is T1, Hepatic Lipase (Homo sapiens, UniProt P11150).
T1 sequence (P11150 23-499): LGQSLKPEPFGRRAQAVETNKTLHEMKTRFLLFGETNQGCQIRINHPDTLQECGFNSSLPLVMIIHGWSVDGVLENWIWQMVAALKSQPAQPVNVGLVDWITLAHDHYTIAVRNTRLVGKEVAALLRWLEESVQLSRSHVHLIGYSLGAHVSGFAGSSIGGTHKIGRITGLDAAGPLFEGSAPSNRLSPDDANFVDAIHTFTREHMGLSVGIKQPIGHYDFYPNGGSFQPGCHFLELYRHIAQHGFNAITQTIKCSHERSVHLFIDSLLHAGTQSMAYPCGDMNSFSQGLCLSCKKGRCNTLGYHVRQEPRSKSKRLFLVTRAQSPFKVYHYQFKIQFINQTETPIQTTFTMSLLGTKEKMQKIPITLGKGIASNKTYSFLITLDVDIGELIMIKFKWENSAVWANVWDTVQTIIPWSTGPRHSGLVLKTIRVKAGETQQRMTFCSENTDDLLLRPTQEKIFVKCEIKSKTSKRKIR
Description: Hydrolysis of thioPEG and thioPC substrates by Hepatic Lipase (papain thiol detection system, FIG. 1). Type of assay: biochemical. Particulars: 0.5 mM thioPEG (enzyme diluted 100-5000 fold), 1.0 mM thioPC (enzyme diluted 1-64 fold). On the procedure:
Hepatic Lipase enzyme was diluted 1, 32 or 64 fold for thioPC and 100, 500, 1000 or 5000 fold for thioPEG. Hydrolysis was measured by the papain thiol detection system (discussed below). […] Data curve I represents 0.5 mM thioPEG and Data Curve II represents 1.0 mM thioPC.
The invention also has the additional advantage of requiring fewer incubation periods in order to obtain detectable color. For example as shown in Scheme D below, thioPC substrate requires a reaction coupled with an enzymatic detection process for the liberated thiol-lysophospholipid which has two additional incubation periods in the papain system. L-BAPNA is an abbreviation for N-benzoyl-L-arginine, p-nitroanilide, hydrochloride.
In Scheme E, below, thioPC is combined with hepatic lipase and incubated for about 30 minutes yielding a free-thiol lysophospholipid. […] Activated papain-SH enzyme is combined with a coloring agent, L-BAPNA, and incubated for 60 minutes yielding a colored product, p-nitro aniline. ThioPEG substrate is an improvement since it requires only a single incubation period to yield detectable color. [drawing 12]

Take `CCCCCCCCCC(=O)O[C@@H](COP(=O)(O)OCCO)CSC(=O)CCCCCCCCC` [thioPEG, (1-Decanoylthio-1-deoxy-2-decanoyl-sn-glycero-3-phosphoryl) ethylene glycol]: the “hydrolysis of substrate by Hepatic Lipase (Optical Density at 410 nM vs Relative Enzyme Concentration)” value is recorded as “hydrolyzed much faster than thioPC”.

Regarding “didecanoyl-thio-phosphatidylcholine [thioPC]”, the “hydrolysis of substrate by Hepatic Lipase (Optical Density at 410 nM vs Relative Enzyme Concentration)” value is on record as “much more slowly”.
